This assay addresses BTK (Homo sapiens, UniProt Q06187). Nature of the assay: biochemical.
Setting [1] is: read-out: BTK inhibition (%), 0.75 uM BTK, […] probe 3l, 15 min preincubation.

Like-named read-outs stand apart in the source and are kept apart here.

Chain of BTK (Q06187 402-655 limits assumed): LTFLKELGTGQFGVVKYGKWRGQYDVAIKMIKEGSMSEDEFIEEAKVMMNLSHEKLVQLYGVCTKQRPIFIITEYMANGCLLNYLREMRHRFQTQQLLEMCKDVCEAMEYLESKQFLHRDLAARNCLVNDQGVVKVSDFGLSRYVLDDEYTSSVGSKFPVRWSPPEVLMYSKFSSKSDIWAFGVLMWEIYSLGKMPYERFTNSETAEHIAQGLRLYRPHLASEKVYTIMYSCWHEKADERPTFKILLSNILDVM

Regarding `Nc1cccc2c1CN(C1CCC(=O)NC1=O)C2=O` (stereo not shown) [PCM-0094938], the inhibition (in general, the change of the read-out against control, counted positive when it falls) at 10 µM under setting [1] turned out to be 14.5%.

As for `COc1cc(Nc2ncc3c(n2)-c2ccc(Cl)cc2C(c2c(F)cccc2OC)=NC3)ccc1C(=O)O` [PCM-0094940], the inhibition at 10 µM under setting [1] was determined as 83.4%.

Turning to `O=C(Nc1cn[nH]c1-c1nc2ccc(CN3CCOCC3)cc2[nH]1)NC1CC1` [PCM-0094942], the inhibition at 10 µM under setting [1] was found to be 93.8%.

Take `CC(C)OC(=O)C(C(=O)OC(C)C)=C1SC=CS1` [PCM-0094945]: under setting [1], the inhibition at 10 µM was found to be 3.9%.

Turning to `Cc1cc2c(F)c(Oc3ncnn4cc(OC[C@@H](C)OC(=O)[C@H](C)N)c(C)c34)ccc2[nH]1` [PCM-0094946], under setting [1], the inhibition at 10 µM was -44.8%.

For `CCN(CC)C(=O)c1ccc(C2=CC3(CCNCC3)Oc3cccc(O)c32)cc1` [PCM-0094948], the inhibition at 10 µM under setting [1] was -14%.

Regarding `Nc1nc(Cl)nc2c1ncn2[C@@H]1O[C@H](CO)[C@@H](O)[C@@H]1F` [PCM-0094949], the inhibition at 10 µM under setting [1] was 1.4%.

For the compound `Nc1ccc(C(=O)Nc2cccc(-c3nc(N4CCOCC4)c4oc5ncccc5c4n3)c2)cn1` [PCM-0094950], under setting [1], the inhibition at 10 µM is -4.8%.

For the compound `O=C(Nc1ccc(OC(F)(F)F)cc1)c1sccc1NCc1ccnc2ccccc12` [PCM-0094951], the inhibition at 10 µM under setting [1] turned out to be 90.3%.

As to `COc1ccc(-c2ccc3c(N4CCOCC4)nc(N4C[C@@H](C)O[C@@H](C)C4)nc3n2)cc1CO` [PCM-0094955], the inhibition at 10 µM under setting [1] is -12.4%.

On to `CC(=O)Nc1ccc(OC[C@](C)(O)C(=O)Nc2ccc([N+](=O)[O-])c(C(F)(F)F)c2)cc1` [PCM-0094957], for which, for the setting “read-out: BTK inhibition (%)”, the inhibition at 10 µM is -1.4%.

With `CNC(=O)c1cc(Oc2ccc(NC(=O)Nc3ccc(Cl)c(C(F)(F)F)c3)cc2)ccn1` [PCM-0094958], the inhibition at 10 µM under setting [1] is 73.8%.

`C=CCNC1=C2C[C@@H](C)C[C@H](OC)[C@H](O)[C@@H](C)/C=C(\C)[C@H](OC(N)=O)[C@@H](OC)/C=C\C=C(/C)C(=O)NC(=CC1=O)C2=O` [PCM-0094959]: the inhibition at 10 µM under setting [1] was determined as 14%.

Turning to `Cc1cccc(Nc2nc(-c3ccncc3)cs2)c1` [PCM-0094960], under setting [1], the inhibition at 10 µM is -1.6%.

With `CO[C@H]1/C=C\C=C(/C)C(=O)NC2=CC(=O)C(NCCN(C)C)=C(C[C@@H](C)C[C@H](OC)[C@H](O)[C@@H](C)/C=C(\C)[C@@H]1OC(N)=O)C2=O` [PCM-0094961], the inhibition at 10 µM under setting [1] turned out to be 28.3%.

As for `N#C/C(=C\c1ccc(O)c(O)c1)C(=O)NCc1ccccc1` [PCM-0094962], the inhibition at 10 µM under setting [1] was determined as 53.1%.

Regarding `CC(C)(C)c1cc(C(C)(C)C)c(NC(=O)c2c[nH]c3ccccc3c2=O)cc1O` [PCM-0094963], the inhibition at 10 µM under setting [1] is 49.8%.

As for `CC(C)(C)c1cnc(CSc2cnc(NC(=O)C3CCNCC3)s2)o1` [PCM-0094965], the inhibition at 10 µM under setting [1] was -6.2%.

As for `COc1cc2c(Nc3ccc(Br)cc3F)ncnc2cc1OCC1CCN(C)CC1` [PCM-0094968], the inhibition at 10 µM under setting [1] amounted to 25.5%.

Turning to `CCN(CCO)CCCOc1ccc2c(Nc3cc(CC(=O)Nc4cccc(F)c4)[nH]n3)ncnc2c1` [PCM-0094969], under setting [1], the inhibition at 10 µM came to 66.9%.

On to `Nc1nc(N)c2nc(-c3cccc(O)c3)c(-c3cccc(O)c3)nc2n1` [PCM-0094971], for which the inhibition at 10 µM under setting [1] worked out at 55.2%.

Consider `CC(C)(C)c1cc(C=C(C#N)C#N)cc(Br)c1O` [PCM-0094972], for which the inhibition at 10 µM under setting [1] stood at 57.2%.

With `O=C1NC(=O)/C(=C/c2ccc3nccc(-c4ccncc4)c3c2)S1` [PCM-0094973], the inhibition at 10 µM under setting [1] was 14.5%.

Take `Cn1cnc(-c2cc3nccc(Oc4ccc(NC(=S)NC(=O)Cc5ccccc5)cc4F)c3s2)c1` [PCM-0094974]: the inhibition at 10 µM under setting [1] was -6.9%.

Take `COc1cc(OC)c(/C=C/S(=O)(=O)Cc2ccc(OC)c(NCC(=O)O)c2)c(OC)c1` [PCM-0094976]: the inhibition at 10 µM under setting [1] is -2.1%.

For the compound `C[C@@H](N)C1CCC(C(=O)Nc2ccncc2)CC1` (stereo partly shown) [PCM-0094977], under setting [1], the inhibition at 10 µM was -2.1%.

As for `CN(NC(=O)CC(=O)NN(C)C(=S)c1ccccc1)C(=S)c1ccccc1` [PCM-0094978], under setting [1], the inhibition at 10 µM was -6.9%.

As to `CCCS(=O)(=O)Nc1ccc(F)c(C(=O)c2c[nH]c3ncc(Cl)cc23)c1F` [PCM-0094979], under setting [1], the inhibition at 10 µM is 23.4%.

For the compound `Nc1ccccc1NC(=O)c1ccc(CNC(=O)OCc2cccnc2)cc1` [PCM-0094980], the inhibition at 10 µM under setting [1] worked out at 9.7%.

For `Cn1cc(C2=C(c3cn(C4CCN(Cc5ccccn5)CC4)c4ccccc34)C(=O)NC2=O)c2ccccc21` [PCM-0094982], the inhibition at 10 µM under setting [1] came to 10.3%.

On to `O=C(Nc1cccc(Cl)c1)Nc1ncc(CCNc2ncnc3ccsc23)s1` [PCM-0094983], for which the inhibition at 10 µM under setting [1] came out at 73.1%.

Take `Cc1c(NC(=O)OC[C@@H]2COCCN2)cn2ncnc(Nc3ccc4c(cnn4Cc4cccc(F)c4)c3)c12` [PCM-0094984]: the inhibition at 10 µM under setting [1] worked out at 32.4%.

Turning to `Cc1ccc(S(=O)(=O)OCC(=O)Nc2ccc(C(=O)O)c(O)c2)cc1` [PCM-0094985], under setting [1], the inhibition at 10 µM is 29.6%.

On to `CCCCCOC(=O)Nc1nc(=O)n([C@@H]2O[C@H](C)[C@@H](O)[C@H]2O)cc1F` [PCM-0094987], for which the inhibition at 10 µM under setting [1] is -11.7%.

Turning to `O=C(c1cc(Cc2n[nH]c(=O)c3ccccc23)ccc1F)N1CCN(C(=O)C2CC2)CC1` [PCM-0094988], the inhibition at 10 µM under setting [1] was found to be 9.7%.

In the case of `O=C(O)Cn1nnc(-c2cc(N3CCC(Oc4cc(F)ccc4Br)CC3)no2)n1` [PCM-0094989], the inhibition at 10 µM under setting [1] was 4.1%.

On to `COc1ccc(C2=N[C@@H](c3ccc(Cl)cc3)[C@@H](c3ccc(Cl)cc3)N2C(=O)N2CCNC(=O)C2)c(OC(C)C)c1` [PCM-0094990], for which the inhibition at 10 µM under setting [1] stood at 14.5%.

Regarding `CC(C)c1cc(-c2n[nH]c(=O)n2-c2ccc3c(ccn3C)c2)c(O)cc1O` [PCM-0094991], under setting [1], the inhibition at 10 µM turned out to be 12.4%.

For the compound `Cc1ccc(NC(=O)c2ccc(CN3CCN(C)CC3)cc2)cc1Nc1nc(-c2cccnc2)cs1` [PCM-0094992], the inhibition at 10 µM under setting [1] was -47.6%.

Regarding `CS(=O)(=O)N1CCN(Cc2cc3nc(-c4cccc5[nH]ncc45)nc(N4CCOCC4)c3s2)CC1` [PCM-0094994], the inhibition at 10 µM under setting [1] is -15.9%.

In the case of `O=[N+]([O-])c1cn2c(n1)OC[C@@H](OCc1ccc(OC(F)(F)F)cc1)C2` [PCM-0094995], under setting [1], the inhibition at 10 µM amounted to 3.1%.

With `COc1cc2nccc(Oc3ccc(NC(=O)Nc4ccc(F)cc4F)c(F)c3)c2cc1OC` [PCM-0094996], the inhibition at 10 µM under setting [1] turned out to be 4.8%.

Consider `S=C(NCc1ccc2c(c1)OCO2)N1CCN(c2ncnc3c2oc2ccccc23)CC1` [PCM-0094997], for which the inhibition at 10 µM under setting [1] worked out at 28.3%.

Consider `C/C(=C\c1csc(C)n1)[C@@H]1C[C@@H]2O[C@]2(C)CCC[C@H](C)[C@H](O)[C@@H](C)C(=O)C(C)(C)[C@@H](O)CC(=O)O1` [PCM-0094998], for which, under setting [1], the inhibition at 10 µM is -9.3%.

As to `Cn1c(N2CCCCS2(=O)=O)nc(C(=O)NCc2ccc(F)cc2)c(O)c1=O` [PCM-0094999], the inhibition at 10 µM under setting [1] is -20.2%.

For `CN(C)CCN1C(=O)c2cccc3cc(N)cc(c23)C1=O` [PCM-0095001], under setting [1], the inhibition at 10 µM stood at 0.8%.

`Nc1nc(Nc2ccc(S(N)(=O)=O)cc2)nn1C(=O)c1c(F)cccc1F` [PCM-0095002]: the inhibition at 10 µM under setting [1] turned out to be 84.1%.

`CNC(=O)c1ccc(N2C(=S)N(c3ccc(C#N)c(C(F)(F)F)c3)C(=O)C2(C)C)cc1F` [PCM-0095003]: the inhibition at 10 µM under setting [1] is -10.3%.

Consider `C[C@]12CCC3=C4CCC(=O)C=C4CC[C@H]3[C@@H]1CC[C@@]2(O)CC#N` [PCM-0095005], for which the inhibition at 10 µM under setting [1] is -11.7%.
